These results are taken from patent US20260258172A1, “CATIONIC POLYMERS WITH SELECTIVE ANTIFUNGAL PROPERTIES” (Uniwersytet Jagiellonski, priority 2022, published 2026).

Values after ≈ are worked out from the molar mass of the structure shown.

Holding throughout (assay type): cell-based
The subject of one data set is HaCaT cell line. Description: Neutral red uptake toxicity test, HaCaT keratinocytes. To be noted: human, 24 h, 5 μg/mL. The procedure:
The testing was performed in the HaCaT cell line, a nontumorigenic, immortalized human keratinocyte line. The DMEM medium was used in the culture, including a modification with 10% fetal bovine serum added. 24 h after seeding and successful adhesion, the polymer dissolved in the medium was added to the cells (the medium was first replaced with a serum-free medium in serum-free experiments), and viable cells were quantified after another 24 h using the neutral red uptake assay.
The toxicity of terbinafine and ciclopirox, two commercially used antifungal drugs, was evaluated in similar conditions (the same cell line, medium composition and exposure time). As for ciclopirox, the serum-free medium was not used because the drug strongly interacts with serum and testing in a serum-free medium would have been unreliable. The results are shown in graphs in FIG. 8 and FIG. 9.

Data set [1] relates to Trichophyton interdigitale 251. Description: Antifungal microdilution MIC test. The settings on record: comparative test. Here is the method: (§1) In vitro tests of the antifungal activity of the polymers were performed with respect to selected fungal species obtained from international culture collections and the microorganism collection in the Department of Infection Control and Mycology, Chair of Microbiology, Jagiellonian University Medical College. The test was performed using the microdilution method in a liquid medium on flat-bottomed, 96-well polypropylene titration plates. The applied methodology was based on antifungal susceptibility testing procedures developed by the European Committee on Antimicrobial Susceptibility Testing (EUCAST) and on the Hancock Lab procedure for antimicrobial cationic peptides.
(§2) The test compounds were dissolved in sterile distilled water and starting concentrations of 5 g/L were prepared, from which a series of two-fold dilutions in water were obtained. Respective polymer dilutions were transferred in a volume of 20 μL on titration plates (wells 1-10). 20 μL of sterile distilled water was transferred to each of wells 11 and 12. Wells 1-11 were inoculated with fungi in a volume of 180 μL of fungal cell suspensions in a liquid medium, and 180 μL of the sterile medium was transferred to well 12. Fungal suspensions were prepared from fresh cultures on agar media by collecting spores using a sterile swab into sterile distilled water or sterile distilled water with Tween-20 added. Suspensions of certain strains were filtered to remove any hyphal elements (filters with a pore diameter of 20 μm and 10 μm were used). The suspensions were brought to a density of 0.5 on the McFarland scale, and subsequently diluted to 1:20 in a liquid RPMI-1640 medium with L-glutamine and without sodium bicarbonate, supplemented with glucose (2%) and buffered morpholinopropanesulfonic acid (MOPS) (0.165 mol/L).
(§3) Final polymer concentrations on plates after adding fungal suspensions in the liquid medium were 0.49-250 mg/L or 0.98-500 mg/L.
(§4) Incubation was performed at room temperature, 27° C., 37° C., depending on the fungal species, until fungal growth was obtained in growth control (well 11). After the incubation period, fungal growth was evaluated visually and the lowest polymer concentrations that caused complete fungal growth inhibition (MIC (minimal inhibitory concentration) values) were determined.
(§5) A test was performed on selected fungal strains to compare MIC values of the PMAPTAC133 polymer with the MIC values of two known antifungal drugs (terbinafine and ciclopirox), used in the treatment of fungal infections of glabrous skin, hairy skin and nails.
(§6) The procedure described in the section above (Example 8) was used in the testing.
(§7) The drugs were dissolved in dimethyl sulfoxide (DMSO) and starting concentrations of 4 g/L were prepared, from which series of two-fold dilutions in DMSO were obtained. Respective […] concentrations were diluted to 1:100 in sterile water and subsequently transferred to wells 1-10 on a titration plate in a volume of 20 μL. Wells 11 and 12 were filled up with 20 μL DMSO diluted to 1:10 in water. Wells 1-11 were inoculated with fungi in a volume of 180 μL of fungal cell suspensions in a liquid medium, and […] of the sterile medium was transferred to well 12. Final drug concentrations on plates after adding fungal suspensions in the liquid medium were 0.008-4 mg/L.
(In broth dilution the organism is exposed to a series of concentrations in liquid medium.)

Data set [2] relates to Scopulariopsis brevicaulis 34. Description: Antifungal microdilution MIC test. To be noted: comparative test. Here is the method: as §1, §2, §3, §4, §5, §6, §7
In a further data set the test system is Trichophyton rubrum D197. Description: Antifungal microdilution MIC test. To be noted: comparative test. Here is the method:
as §1, §2, §3, §4, §5, §6, §7

Data set [3] concerns Aspergillus brasiliensis ATCC 16404. Description: Antifungal microdilution MIC test. To be noted: comparative test; for MIC: Aspergillus brasiliensis, ATCC16404. The procedure:
as §1, §2, §3, §4, §5, §6, §7

Data set [4] relates to Scopulariopsis brevicaulis DSM 9122. Description: Antifungal microdilution MIC test. The settings on record: DSM9122, comparative test. The procedure: as §1, §2, §3, §4, §5, §6, §7
The test system of another data set is Cryptococcus neoformans. Description: Antifungal microdilution MIC test. The settings on record: comparative test; for MIC: Cryptococcus neoformans. The procedure: as §1, §2, §3, §4, §5, §6, §7
In data set [5] the test system is Trichophyton mentagrophytes ATCC 18484. Description: Antifungal microdilution MIC test. The settings on record: comparative test; for MIC: Trichophyton mentagrophytes, ATCC18484. The procedure: as §1, §2, §3, §4, §5, §6, §7
For data set [6], the system named is Trichophyton tonsurans DSM 12285. Description: Antifungal microdilution MIC test. To be noted: DSM12285, comparative test. Here is the method: as §1, §2, §3, §4, §5, §6, §7
Data set [7] concerns Aspergillus flavus ATCC 204304. Description: Antifungal microdilution MIC test. To be noted: comparative test; for MIC: Aspergillus flavus, ATCC204304. The procedure:
as §1, §2, §3, §4, §5, §6, §7

For orientation: MIC means the lowest concentration found to suppress growth. Higher therefore signals a need for much substance. Regarding `Cc1cc(C2CCCCC2)n(O)c(=O)c1` [Ciclopirox, ciclopirox], the “reduction of viable keratinocyte cells compared to the control” value in the data set with HaCaT cell line was determined as 30%. For the same compound, the MIC (in data set [1] (incubation time 24 h); in [1] (incubation time 48 h); in data set [1] (incubation time 72 h); in [2] (incubation time 24 h); in data set [2] (incubation time 48 h); in the data set on Trichophyton rubrum D197 (incubation time 48 h)) was > 4 µg/mL throughout. For the same compound, the MIC (against Trichophyton rubrum D197 (incubation time 72 h); in data set [3] (incubation time 24 h); in data set [3] (incubation time 48 h); in data set [4] (incubation time 24 h); in data set [4] (incubation time 48 h); with Cryptococcus neoformans (incubation time 24 h)) was > 4 µg/mL each time. For the same compound, the MIC (in the data set on Cryptococcus neoformans (incubation time 48 h); in [5] (incubation time 24 h); in data set [5] (incubation time 48 h); in data set [5] (incubation time 72 h); in data set [6] (incubation time 48 h); in [6] (incubation time 72 h)) was > 4 µg/mL throughout. Also, the MIC in data set [7] (incubation time 24 h) and in data set [7] (incubation time 48 h) was > 4 µg/mL each time. Moreover, the “concentration with slight growth suppression” value in the data set with Cryptococcus neoformans (incubation time 24 h) is recorded as >4 slight mg/L.

In the case of `CN(C/C=C/C#CC(C)(C)C)Cc1cccc2ccccc12` [Terbinafine, terbinafine], the minimum inhibitory concentration (MIC) was 1 µg/mL (≈ 3.43 µM) in data set [1] (incubation time 72 h); > 4 µg/mL in data set [2] (incubation time 24 h); > 4 µg/mL in data set [2] (incubation time 48 h); 0.125 µg/mL (≈ 0.429 µM) against Trichophyton rubrum D197 (incubation time 48 h); 0.25 µg/mL (≈ 0.858 µM) in the data set with Trichophyton rubrum D197 (incubation time 72 h); 2 µg/mL (≈ 6.86 µM) in [3] (incubation time 24 h). Also, the MIC is > 4 µg/mL in data set [3] (incubation time 48 h); > 4 µg/mL in [4] (incubation time 24 h); > 4 µg/mL in data set [4] (incubation time 48 h); > 4 µg/mL in the data set on Cryptococcus neoformans (incubation time 24 h); > 4 µg/mL in the data set on Cryptococcus neoformans (incubation time 48 h); 0.125 µg/mL (≈ 0.429 µM) in data set [5] (incubation time 24 h). Also, the MIC is 0.5 µg/mL (≈ 1.72 µM) in data set [5] (incubation time 48 h); 1 µg/mL (≈ 3.43 µM) in data set [5] (incubation time 72 h); 0.25 µg/mL (≈ 0.858 µM) in data set [6] (incubation time 48 h); 0.25 µg/mL (≈ 0.858 µM) in [6] (incubation time 72 h); 4 µg/mL (≈ 13.7 µM) in [7] (incubation time 24 h); > 4 µg/mL in [7] (incubation time 48 h). For the same compound, in data set [3] (incubation time 48 h), the “concentration with (clear) growth suppression” value came to 2 mg/L. In addition, the “concentration with marginal growth” value in data set [5] (incubation time 48 h) worked out at 0.25 mg/L. Besides, the “concentration with growth suppression” value in data set [7] (incubation time 48 h) came out at 2 mg/L.
